From patent US12384775B2, “Pyrimid-2-yl-pyrazole compounds as IRAK inhibitors” (Rigel Pharmaceuticals, Inc., priority 2022, dated 2025)

How the values were obtained:
[1] = tested on: TLR7-Induced TNF-α in Human Peripheral Blood Mononuclear Cells (PBMC); test: TLR7-induced TNF-α in human PBMC (resiquimod); format: cell-based; conditions: resiquimod 0.1 μg/ml, read-out: Cell Assays IC50, TNFα (PBMC, resiquimod)
Procedure: Human peripheral blood mononuclear cells (PBMC) were seeded at 100,000 cells per well in 100 μL of RPMI with 10% FCS and primed overnight with 8 ng/ml of IFN-β at 37° C., 5% CO2. Compound was serially diluted in DMSO from 2 mM in 3-fold dilutions, and then diluted 1:100 in RPMI 1640 complete media with 10% FBS (2× stock). The PBMCs were pre-incubated with test compound for 1 hour at 37° C., 5% CO2 by adding 100 μL of RPMI media containing 2× concentrated test compound per well (0.5% final DMSO concentration).
The PBMCs were stimulated with resiquimod (10 μL per well of 21× concentrated resiquimod solution in RPMI media to give a final concentration of 0.1 μg/ml) at 37° C., 5% CO2 for an additional 18 hours. 100 μL of supernatant per well was harvested to measure TNF-α. TNF-α was quantitated using DuoSet ELISA Kit per manufacturer's protocol.

[2] = tested on: TLR- and IL-1R-dependent cytokine production; test: Cell assays, average of IL-23 (THP-1), TNFα (PBMC), TNFα (DC); format: cell-based; conditions: Homo sapiens, average of the three cell assays
Description: To evaluate the effect of compound I-1 on TLR and IL-1R-dependent cytokine release, multiple cell types were isolated and stimulated in the presence of compound I-1 or Comparison-1.

IRAK4 = biological target: T1, IRAK4 (Homo sapiens, UniProt Q9NWZ3); test: IRAK4 Z'-LYTE assay; format: biochemical; conditions: for IC50: n = 1
T1 construct: purchased Signalchem I12-10G-20
T1 sequence (Q9NWZ3 1-460): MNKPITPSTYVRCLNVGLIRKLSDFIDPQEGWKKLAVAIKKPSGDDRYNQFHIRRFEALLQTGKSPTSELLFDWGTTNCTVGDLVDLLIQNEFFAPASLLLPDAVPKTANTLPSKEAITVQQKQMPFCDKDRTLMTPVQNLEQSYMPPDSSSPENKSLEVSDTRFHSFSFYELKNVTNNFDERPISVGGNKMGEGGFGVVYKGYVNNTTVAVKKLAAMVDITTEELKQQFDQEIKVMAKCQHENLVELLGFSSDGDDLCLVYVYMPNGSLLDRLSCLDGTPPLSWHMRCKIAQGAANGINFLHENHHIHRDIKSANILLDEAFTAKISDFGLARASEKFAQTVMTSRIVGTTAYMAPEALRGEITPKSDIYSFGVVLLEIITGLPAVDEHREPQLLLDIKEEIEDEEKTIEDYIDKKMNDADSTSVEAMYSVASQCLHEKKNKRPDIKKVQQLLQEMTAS
Procedure: • Bar-coded Corning, low volume NBS, black 384-well plate (Corning Cat. #4514) • Test Compounds: The Test Compounds are screened in 1% DMSO (final) in the well. For 10 point titrations, 3-fold serial dilutions are conducted from 10 µM. • Peptide/Kinase Mixture: The 2×IRAK4/Ser/Thr 07 mixture is prepared in 50 mM HEPES pH 7.5, 0.01% BRIJ-35, 10 mM MnCl2, 1 mM EGTA, 2 mM DTT, 0.02% NaN3. • ATP Solution: All ATP Solutions are diluted to a 4× working concentration in Kinase Buffer (50 mM HEPES pH 7.5, 0.01% BRIJ-35, 10 mM MgCl2, 1 mM EGTA). ATP Km apparent is previously determined using a Z-LYTE® assay. • Development Reagent Solution: The Development Reagent is diluted 1:45000 in Development Buffer. General Method • 1. 100 nL—100× Test Compound in 100% DMSO • 2. […]—Kinase buffer • 3. 5 μL—2× Peptide/Kinase Mixture • 4. 2.5 μL—4×ATP Solution
The final 10 μL Kinase Reaction consists of 3.45-63.6 ng IRAK4 and 2 μM Ser/Thr 07 in 50 mM HEPES pH 7.5, 0.01% BRIJ-35, 5 mM MgCl2, 5 mM MnCl2, 1 mM EGTA, 1 mM DTT, 0.01% NaN3. • 5. 30-second plate shake • 6. 60-minute Kinase Reaction incubation at room temperature • 7. 5 μL—Development Reagent Solution • 8. 30-second plate shake • 9. 60-minute Development Reaction incubation at room temperature • 10. Read on fluorescence plate reader and analyze the data

[3] = tested on: TLR7-induced TNF-α production in human primary dendritic cells (DC); test: Gardiquimod-induced TNF-α in human monocyte-derived dendritic cells (DC); format: cell-based; conditions: Dendritic cell, gardiquimod 4 μg/ml, read-out: Cell Assays IC50, TNFα (DC, Gard)
Procedure: Human peripheral blood mononuclear cells (PBMC) (400 million) were allowed to adhere in a T-175 flask containing 15 ml RPMI media (10% FBS) for 2 hours at 37° C., 5% CO2 to capture the monocytes.
After 2 hours, the media including floating cells was carefully removed and 12 ml of fresh RPMI media (10% FBS) containing GM-CSF (100 ng/ml) and IL-4 (20 ng/ml) were added to the adherent monocytes. The monocytes were allowed to differentiate for 7 days at 37° C., 5% CO2 for 7 days, supplementing with fresh GM-CSF and IL-4 after 3 days.
The differentiated dendritic cells (DC) were harvested by centrifugation (1200 rpm/5 min). The DCs were primed at 37° C., 5% CO2 for 24 hours with 50 ng/ml IFN-7 (1000 U/ml) at 50K/well in 100 μL/well of fresh RPMI media (10% FBS) in a white clear bottom 96 well plate.
Compound was serially diluted in DMSO from 2.5 mM in 4-fold dilutions, and then diluted 1:125 in RPMI 1640 complete media with 10% FBS. The primed DCs were pre-incubated with test compound for 1 hour at 37° C., 5% CO2 by adding 100 μl of RPMI media containing 2× concentrated test compound per well (0.5% final DMSO concentration).
The DCs were stimulated with gardiquimod (10 μL per well of 20× concentrated gardiquimod solution in RPMI media to give a final concentration of 4 μg/ml) at 37° C., 5% CO2 for an additional 18 hours. […] TNF-α was quantitated by ELISA, following the kit protocol.

Compound | IC50 [1] [nM] | IC50 [2] [nM] | EC50 (IRAK4) [nM] | IC50 (IRAK4) [nM] | IC50 [3] [nM]
CCO[C@H]1CC[C@H](n2cc(NC(=O)c3csc(-c4cn[nH]c4)n3)c(-c3ncccn3)n2)CC1 [Compound I-1, N-(1-((1r,4r)-4-ethoxycyclohexyl)-3-(pyrimidin-2-yl)-1H-pyrazol-4-yl)-2-(1H-pyrazol-4-yl)thiazole-4-carboxamide] | 3 | 5 | 6 | 6 | 5
CCO[C@H]1CC[C@H](n2cc(NC(=O)c3csc(-c4cn[nH]c4)n3)c(-c3nc(F)ccc3F)n2)CC1 [Comparison-1, reference compound] | 15 | 32 |  | 15 | 19
